Test results published in patent publication US9290485B2, “N-((6-amino-pyridin-3-yl)methyl)-heteroaryl-carboxamides” (NOVARTIS AG, priority 2010, dated 2016).
pIC50: −log10 of the molar value.

The compounds below were run against human plasma kallikrein (Homo sapiens (Human), UniProt P03952). Details: human plasma kallikrein 25 pM, substrate 0.5 uM, 1 hour pre-incubation at room temperature, read at t=60 min.
Sequence of human plasma kallikrein (P03952 whole entry, looked up): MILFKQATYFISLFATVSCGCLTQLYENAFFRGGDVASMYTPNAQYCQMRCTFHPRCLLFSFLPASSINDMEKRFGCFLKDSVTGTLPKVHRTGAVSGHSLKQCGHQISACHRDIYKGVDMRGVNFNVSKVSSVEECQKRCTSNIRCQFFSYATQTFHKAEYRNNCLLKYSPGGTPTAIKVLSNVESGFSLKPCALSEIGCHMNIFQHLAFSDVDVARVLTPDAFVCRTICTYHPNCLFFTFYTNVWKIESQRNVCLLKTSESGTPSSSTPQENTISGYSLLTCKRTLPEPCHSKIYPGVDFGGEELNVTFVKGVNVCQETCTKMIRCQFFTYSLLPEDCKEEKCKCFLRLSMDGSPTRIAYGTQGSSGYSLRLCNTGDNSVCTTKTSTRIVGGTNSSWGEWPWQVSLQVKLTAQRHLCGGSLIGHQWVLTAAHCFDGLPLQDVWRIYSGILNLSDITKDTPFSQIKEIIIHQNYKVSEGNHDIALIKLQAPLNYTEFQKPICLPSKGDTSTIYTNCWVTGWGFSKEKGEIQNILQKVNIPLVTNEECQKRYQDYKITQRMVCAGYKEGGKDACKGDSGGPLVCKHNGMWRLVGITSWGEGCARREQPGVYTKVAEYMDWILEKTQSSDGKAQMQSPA
Sequence of human plasma kallikrein (P03952 whole entry partner, looked up): as the sequence (P03952 whole entry, looked up) above
`Cc1cn2cc(Cn3cc(C(=O)NCc4c(C)cc(N)nc4C)cn3)ccc2n1` [Example 169, N-((6-amino-2,4-dimethylpyridin-3-yl)methyl)-1-((2-methylimidazo[1,2-a]pyridin-6-yl)methyl)-1H-pyrazole-4-carboxamide] gave a pIC50 of 8.52. `Cc1cc(N)nc(C)c1CNC(=O)c1cnn(Cc2sc(-c3ccccc3)nc2C)c1` [Example 26, N-((6-amino-2,4-dimethylpyridin-3-yl)methyl)-1-((4-methyl-2-phenylthiazol-5-yl)methyl)-1H-pyrazole-4-carboxamide] gave a pIC50 of 7.72. Work on `Cc1cn(S(=O)(=O)c2ccccc2)cc1C(=O)NCc1c(C)cc(N)nc1C` [Example 74, N-((6-amino-2,4-dimethylpyridin-3-yl)methyl)-4-methyl-1-(phenylsulfonyl)-1H-pyrrole-3-carboxamide] yielded a pIC50 of 6.23. `Cc1cc(N)nc(C)c1CNC(=O)c1cnn(Cc2cccc(C#N)c2)c1` [Example 81, N-((6-amino-2,4-dimethylpyridin-3-yl)methyl)-1-(3-cyanobenzyl)-1H-pyrazole-4-carboxamide] gave a pIC50 of 6.39. With `Cc1cc(N)nc(C)c1CNC(=O)c1cnn(Cc2cn3ccccc3n2)c1` [Example 30, N-((6-amino-2,4-dimethylpyridin-3-yl)methyl)-1-(imidazo[1,2-a]pyridin-2-ylmethyl)-1H-pyrazole-4-carboxamide] the pIC50 was 6.69. `Cc1cc(N)nc(C)c1CNC(=O)c1cn(Cc2cccc(-n3cccn3)c2)nn1` [Example 42, 1-(3-(1H-pyrazol-1-yl)benzyl)-N-((6-amino-2,4-dimethylpyridin-3-yl)methyl)-1H-1,2,3-triazole-4-carboxamide] gave a pIC50 of 6.84. `Cc1nc(N)cc(OCC(N)=O)c1CNC(=O)c1cnn(Cc2ccccc2)c1` [Example 77, N-((6-amino-4-(2-amino-2-oxoethoxy)-2-methylpyridin-3-yl)methyl)-1-benzyl-1H-pyrazole-4-carboxamide] was tested, and the pIC50 was 7.14. In the case of `Cc1cc(N)nc(C)c1CNC(=O)c1cnn(Cc2ccc(Cn3ccccc3=O)cc2)c1` [Example 142, N-((6-amino-2,4-dimethylpyridin-3-yl)methyl)-1-(4-((2-oxopyridin-1(2H)-yl)methyl)benzyl)-1H-pyrazole-4-carboxamide], the pIC50 was 10.65. `Cc1cc(N)nc(C)c1CNC(=O)c1ncn(Cc2ccc(Cn3cncn3)cc2)n1` [Example 59] showed a pIC50 of 6.68. Work on `Cc1nc(Cn2cc(C(=O)NCc3c(C)cc(N)nc3C)cn2)cs1` [Example 97, N-((6-amino-2,4-dimethylpyridin-3-yl)methyl)-1-((2-methylthiazol-4-yl)methyl)-1H-pyrazole-4-carboxamide] yielded a pIC50 of 5.72. `Cc1cc(N)nc(C)c1CNC(=O)c1ccn(Cc2ccccc2)c1` [Example 70, N-((6-amino-2,4-dimethylpyridin-3-yl)methyl)-1-benzyl-1H-pyrrole-3-carboxamide] was tested, and the pIC50 was 5.39. Work on `Cc1ccc2cc(Cc3nc(C(=O)NCc4c(C)cc(N)nc4C)co3)ccc2n1` [Example 170, N-((6-amino-2,4-dimethylpyridin-3-yl)methyl)-2-((2-methylquinolin-6-yl)methyl)oxazole-4-carboxamide] yielded a pIC50 of 8.01. In the case of `Cc1cc(N)nc(C)c1CNC(=O)c1cn(Cc2ccc(Cn3ccnc3)cc2)nn1` [Example 45, 1-(4-((1H-imidazol-1-yl)methyl)benzyl)-N-((6-amino-2,4-dimethylpyridin-3-yl)methyl)-1H-1,2,3-triazole-4-carboxamide], the pIC50 was 7.35. `Cc1cc(N)nc(C)c1CNC(=O)c1cnn(Cc2ccnc(N3CCOCC3)c2)c1` [Example 69, N-((6-amino-2,4-dimethylpyridin-3-yl)methyl)-1-((2-morpholinopyridin-4-yl)methyl)-1H-pyrazole-4-carboxamide] gave a pIC50 of 5.80. Compound `Cc1cc(N)nc(C)c1CNC(=O)c1ccn(S(=O)(=O)c2ccccc2)c1C` [Example 176, N-((6-Amino-2,4-dimethylpyridin-3-yl)methyl)-2-methyl-1-(phenylsulfonyl)-1H-pyrrole-3-carboxamide] has a pIC50 of 4.35. `Cc1cc(N)nc(C)c1CNC(=O)c1cnn(Cc2ccc3ccn(C)c3c2)c1` [Example 34, N-((6-amino-2,4-dimethylpyridin-3-yl)methyl)-1-((1-methyl-1H-indol-6-yl)methyl)-1H-pyrazole-4-carboxamide] was tested, and the pIC50 was 7.34. Compound `Cc1cc(N)nc(C)c1CNC(=O)c1cnn(Cc2ccc(-c3ccncc3)cc2)c1` [Example 114, N-((6-amino-2,4-dimethylpyridin-3-yl)methyl)-1-(4-(pyridin-4-yl)benzyl)-1H-pyrazole-4-carboxamide] has a pIC50 of 7.52. Work on `Cc1cc(N)nc(C)c1CNC(=O)c1cn(Cc2cccc(Cn3ccnc3)c2)nn1` [Example 46, 1-(3-((1H-imidazol-1-yl)methyl)benzyl)-N-((6-amino-2,4-dimethylpyridin-3-yl)methyl)-1H-1,2,3-triazole-4-carboxamide] yielded a pIC50 of 5.96. For `Cc1cc(N)nc(C)c1CNC(=O)c1cnn(Cc2cc3ccsc3c(N)n2)c1` [Example 171, N-((6-Amino-2,4-dimethylpyridin-3-yl)methyl)-1-((7-aminothieno[2,3-c]pyridin-5-yl)methyl)-1H-pyrazole-4-carboxamide], the pIC50 was 7.59. `Cc1cc(N)nc(C)c1CNC(=O)c1cn(Cc2cccc(N3CCCC3)c2)nn1` [Example 43, N-((6-amino-2,4-dimethylpyridin-3-yl)methyl)-1-(3-(pyrolidin-1-yl)benzyl)-1H-1,2,3-triazole-4-carboxamide] was tested, and the pIC50 was 6.95. Work on `Cc1cc(N)nc(C)c1CNC(=O)c1cnn(Cc2cc3ccccc3o2)c1` [Example 31] yielded a pIC50 of 6.84. `Cc1cc(N)nc(C)c1CNC(=O)c1cn(Cc2ccccc2)cn1` [Example 22, N-((6-amino-2,4-dimethylpyridin-3-yl)methyl)-1-benzyl-1H-imidazole-4-carboxamide] showed a pIC50 of 5.77. In the case of `Cc1cc(N)nc(C)c1CNC(=O)c1cn(Cc2cccc3ccccc23)nn1` [Example 39, N-((6-amino-2,4-dimethylpyridin-3-yl)methyl)-1-(naphthalen-1-ylmethyl)-1H-1,2,3-triazole-4-carboxamide], the pIC50 was 6.20. `Cc1cc(N)nc(C)c1CNC(=O)c1cnn(Cc2csc(Cc3ccccc3)n2)c1` [Example 27, N-((6-amino-2,4-dimethylpyridin-3-yl)methyl)-1-((2-benzylthiazol-4-yl)methyl)-1H-pyrazole-4-carboxamide] was tested, and the pIC50 was 7.68. Work on `Cc1nc(N)cc(Cl)c1CNC(=O)c1cnn(Cc2ccc(Cn3ccccc3=O)cc2)c1` [Example 167, N-((6-Amino-4-chloro-2-methylpyridin-3-yl)methyl)-1-(4-((2-oxopyridin-1(2H)-yl)methyl)benzyl)-1H-pyrazole-4-carboxamide] yielded a pIC50 of 9.70. Compound `Cc1cc(N)nc(C)c1CNC(=O)c1coc(Oc2ccccc2)n1` [Example 78, N-((6-amino-2,4-dimethylpyridin-3-yl)methyl)-2-phenoxyoxazole-4-carboxamide] has a pIC50 of 5.00. In the case of `Cc1cc(N)nc(C)c1CNC(=O)c1cnn(Cc2cc(C(F)(F)F)c3cc(F)ccc3n2)c1` [Example 162, N-((6-amino-2,4-dimethylpyridin-3-yl)methyl)-1-((6-fluoro-4-(trifluoromethyl)quinolin-2-yl)methyl)-1H-pyrazole-4-carboxamide], the pIC50 was 8.30. Work on `Cc1cc(N)nc(C)c1CNC(=O)c1ccc(Oc2ccccc2)o1` [Example 48, N-((6-amino-2,4-dimethylpyridin-3-yl)methyl)-5-phenoxyfuran-2-carboxamide] yielded a pIC50 of 4.45.
